Where two headings read alike, the source gives them in different places.

For experiment [1], the system named is MDA-MB-468. Kind of experiment: 13C3 Serine Assay MDA-MB-468 (13C3 serine levels by LC/MS/MS). The experiment is classed as cell-based. As to conditions: MDA-MB-468 cells, 13C3 serine levels by LC/MS/MS, read-out: IC50 (13CSERINE).
Experimental: Cells are cultivated in Medium I in a 75 mL flask.
Day 1: 5000 cells in 180 μL Medium I/well were seeded into a 96-well plate. Plates were incubated at 37° C. in a 5% CO2 incubator overnight.
Day 2: 10 mM DMSO stock from test compounds were serially pre-diluted with Medium I (See dilution scheme: for the first well 20 μL DMSO stock are diluted with 180 μL Medium I. From this 1000 μM solution further seven 1:3 (1+2) dilution are prepared with Medium I). 20 μL of these pre-dilutions are transferred in duplicates to the 96-well plate of Day 1. After incubation at 37° C. in a CO2 incubator for 1 hour the medium was removed, 100 μL PBS (tempered to room temperature) added and subsequently removed again.
180 μL Medium II were then added per well and 20 μL of serial dilutions of test compounds in Medium II (as described before) were transferred per well as above. After 180 minutes incubation at 37° C. in a CO2 incubator the medium was again cautiously removed.
After the addition of 100 μL methanol: H2O (80:20, v:v, pre-cooled to −80° C.) the plates were sealed immediately and frozen at −80° C.
At day of measurement plates were thawn, centrifuged and the supernatant evaporated. The samples were resuspended in 100 μl water for tandem mass spectrometry.
^13C3 serine levels were analyzed with LC/MS/MS using Multiple Reaction Monitoring (MRM).
IC50 values were computed from these values using a 4 parametric logistic model.
The target in experiment [2] is PHGDH (Homo sapiens (Human), UniProt O43175). Kind of experiment: 3-Phosphoglycerate Dehydrogenase (PHGDH) Fluorescence Intensity Assay, run at two NAD/3-PG ratios: PHGDH_HIGH_NAD/3-PG (250 μM NAD/500 μM 3-PG) and PHGDH_500_NAD/3-PG (500 μM NAD/500 μM 3-PG). The class given is biochemical.
Setting [3] is: 250 μM NAD/500 μM 3-PG, read-out: IC50 (PHGDH_HIGH_NAD/3-PG).
Setting [4] is: 500 μM NAD/500 μM 3-PG, read-out: IC50 (PHGDH_500_NAD/3-PG).

Chain of PHGDH (O43175 2-533 limits assumed): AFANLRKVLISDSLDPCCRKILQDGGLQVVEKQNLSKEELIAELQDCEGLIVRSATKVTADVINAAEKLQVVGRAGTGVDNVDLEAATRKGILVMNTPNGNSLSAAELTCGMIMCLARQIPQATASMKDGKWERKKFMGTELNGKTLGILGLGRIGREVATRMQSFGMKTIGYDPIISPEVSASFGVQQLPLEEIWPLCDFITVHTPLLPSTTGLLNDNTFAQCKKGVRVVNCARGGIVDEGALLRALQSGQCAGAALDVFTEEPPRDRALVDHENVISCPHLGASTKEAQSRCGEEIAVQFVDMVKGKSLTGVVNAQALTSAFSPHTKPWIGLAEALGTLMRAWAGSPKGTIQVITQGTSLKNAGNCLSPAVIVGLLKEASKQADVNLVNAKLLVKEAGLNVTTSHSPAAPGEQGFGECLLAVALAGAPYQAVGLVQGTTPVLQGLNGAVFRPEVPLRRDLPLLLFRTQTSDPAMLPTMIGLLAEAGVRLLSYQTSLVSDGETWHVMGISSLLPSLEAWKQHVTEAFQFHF

As for `Cc1cc(Cl)c2cc(C(=O)N[C@H](C)c3ccc(S(=O)(=O)CC(=O)OC(C)C)cc3)n(C)c2c1` [Example 01-018, propan-2-yl 2-{4-[(1R)-1-[(4-chloro-1,6-dimethyl-1H-indol-2-yl)formamido]ethyl]benzenesulfonyl}acetate], the IC50 in experiment [1] (Homo sapiens) was determined as 0.0663 µM. With `COC(=O)CS(=O)(=O)c1ccc([C@@H](C)NC(=O)c2cc3c(Cl)cc(C)cc3n2C)nc1` [Example 01-029, methyl 2-({6-[(1R)-1-[(4-chloro-1,6-dimethyl-1H-indol-2-yl)formamido]ethyl]pyridin-3-yl}sulfonyl)acetate], the IC50 in experiment [1] (Homo sapiens) was determined as 0.0514 µM. Turning to `Cc1cc(Cl)c2cc(C(=O)N[C@H](C)c3ccc([S@@+]([O-])CC(=O)O)cc3)n(C)c2c1` [Example 12-006, 2-[(S)-4-[(1R)-1-[(4-chloro-1,6-dimethyl-1H-indol-2-yl)formamido]ethyl]benzenesulfinyl]acetic acid], the IC50 in experiment [2] (setting [3]) stood at 0.061 µM; in experiment [2] (setting [4]), 0.095 µM. Regarding `Cc1cc(Cl)c2cc(C(=O)N[C@H](CO)c3ccc([S+]([O-])CC(=O)O)cc3)n(C)c2c1` (stereo partly drawn) [Example 12-007, 2-{4-[(1S)-1-[(4-chloro-1,6-dimethyl-1H-indol-2-yl)formamido]-2-hydroxyethyl]benzenesulfinyl}acetic acid], the IC50 turned out to be 0.008 µM in experiment [2] (setting [3]) and 0.011 µM in experiment [2] (setting [4]). Take `Cc1cc2c(cc(C(=O)N[C@H](C)c3ccc([S+]([O-])CC(=O)O)cc3)n2C)c(Cl)c1Cl` (stereo partly drawn) [Example 12-008, 2-{4-[(1R)-1-[(4,5-dichloro-1,6-dimethyl-1H-indol-2-yl)formamido]ethyl]benzenesulfinyl}acetic acid]: the IC50 in experiment [2] (setting [4]) is 0.008 µM. As for `Cc1cc2c(cc(C(=O)N[C@H](CO)c3ccc([S@+]([O-])CC(=O)O)cc3)n2C)c(F)c1F` [Example 12-009, 2-[(R)-4-[(1S)-1-[(4,5-difluoro-1,6-dimethyl-1H-indol-2-yl)formamido]-2-hydroxyethyl]benzenesulfinyl]acetic acid], the IC50 in experiment [2] (setting [4]) was determined as 0.032 µM. On to `Cc1cc2c(cc(C(=O)N[C@H](CO)c3ccc([S@@+]([O-])CC(=O)O)cc3)n2C)c(F)c1F` [Example 12-010, 2-[(S)-4-[(1S)-1-[(4,5-difluoro-1,6-dimethyl-1H-indol-2-yl)formamido]-2-hydroxyethyl]benzenesulfinyl]acetic acid], for which the IC50 in experiment [2] (setting [4]) amounted to 0.01 µM.

`Cc1cc2c(cc(C(=O)N[C@H](CO)c3ccc([S@+]([O-])CC(=O)OC(C)C)cc3)n2C)c(Cl)c1Cl` [Example 13-001, propan-2-yl 2-[(R)-4-[(1S)-1-[(4,5-dichloro-1,6-dimethyl-1H-indol-2-yl)formamido]-2-hydroxyethyl]benzenesulfinyl]acetate]: the IC50 in experiment [2] (setting [3]) worked out at 0.204 µM; in experiment [2] (setting [4]), 0.305 µM. As for `Cc1cc2c(cc(C(=O)N[C@H](CO)c3ccc([S@@+]([O-])CC(=O)OC(C)C)cc3)n2C)c(Cl)c1Cl` [Example 13-002, propan-2-yl 2-[(S)-4-[(1S)-1-[(4,5-dichloro-1,6-dimethyl-1H-indol-2-yl)formamido]-2-hydroxyethyl]benzenesulfinyl]acetate], the results for the IC50 in experiment [2] (setting [3]) and in experiment [2] (setting [4]) were 0.819 µM and 1.02 µM, respectively. On to `Cc1cc2c(cc(C(=O)N[C@H](CO)c3ccc([S@@+]([O-])CC(=O)OC4CCOCC4)cc3)n2C)c(Cl)c1Cl` [Example 13-003, oxan-4-yl 2-[(S)-4-[(1S)-1-[(4,5-dichloro-1,6-dimethyl-1H-indol-2-yl)formamido]-2-hydroxyethyl]benzenesulfinyl]acetate], for which, in experiment [2] (setting [4]), the IC50 worked out at 0.211 µM.

As to `Cc1cc2c(cc(C(=O)N[C@H](CO)c3ccc([S@@+]([O-])CC(=O)OC(C)C)cc3)n2C)c(F)c1F` [Example 13-004, propan-2-yl 2-[(S)-4-[(1S)-1-[(4,5-difluoro-1,6-dimethyl-1H-indol-2-yl)formamido]-2-hydroxyethyl]benzenesulfinyl]acetate], the IC50 in experiment [2] (setting [4]) is 0.69 µM.

With `Cc1cc2c(cc(C(=O)N[C@H](CO)c3ccc([S@+]([O-])CC(=O)OC4CCOCC4)cc3)n2C)c(Cl)c1Cl` [Example 13-005, oxan-4-yl 2-[(R)-4-[(1S)-1-[(4,5-dichloro-1,6-dimethyl-1H-indol-2-yl)formamido]-2-hydroxyethyl]benzenesulfinyl]acetate], the IC50 in experiment [2] (setting [4]) is 0.191 µM. As for `Cc1cc2c(cc(C(=O)N[C@H](CO)c3ccc([S@+]([O-])CC(=O)OC(C)C)cc3)n2C)c(F)c1F` [Example 13-006, propan-2-yl 2-[(R)-4-[(1S)-1-[(4,5-difluoro-1,6-dimethyl-1H-indol-2-yl)formamido]-2-hydroxyethyl]benzenesulfinyl]acetate], in experiment [2] (setting [4]), the IC50 is 2.08 µM. For `Cc1cc(Cl)c2cc(C(=O)N[C@H](C)c3ccc([S+]([O-])CC(=O)OC(C)C)cc3)n(C)c2c1` (stereo partly drawn) [Example 13-007, propan-2-yl 2-{4-[(1R)-1-[(4-chloro-1,6-dimethyl-1H-indol-2-yl)formamido]ethyl]benzenesulfinyl}acetate], the IC50 in experiment [2] (setting [3]) is 2.14 µM. Turning to `Cc1cc(Cl)c2cc(C(=O)N[C@H](CO)c3ccc([S+]([O-])CC(=O)OC(C)C)cc3)n(C)c2c1` (stereo partly drawn) [Example 13-008, propan-2-yl 2-{4-[(1S)-1-[(4-chloro-1,6-dimethyl-1H-indol-2-yl)formamido]-2-hydroxyethyl]benzenesulfinyl}acetate], the IC50 was 0.695 µM in experiment [2] (setting [3]) and 1.2 µM in experiment [2] (setting [4]).

As to `Cc1cc2c(cc(C(=O)N[C@H](CO)c3ccc([S+]([O-])CC(=O)OC(C)C)cc3)n2C)c(Cl)c1Cl` (stereo partly drawn) [Example 13-009, propan-2-yl 2-{4-[(1S)-1-[(4,5-dichloro-1,6-dimethyl-1H-indol-2-yl)formamido]-2-hydroxyethyl]benzenesulfinyl}acetate], the IC50 came out at 0.428 µM in experiment [2] (setting [3]) and 0.797 µM in experiment [2] (setting [4]). For the compound `Cc1cc2c(cc(C(=O)N[C@H](CO)c3ccc([S+]([O-])CC(=O)OC(C)C)cc3)n2C)c(F)c1F` (stereo partly drawn) [Example 13-010, propan-2-yl 2-{4-[(1S)-1-[(4,5-difluoro-1,6-dimethyl-1H-indol-2-yl)formamido]-2-hydroxyethyl]benzenesulfinyl}acetate], the IC50 in experiment [2] (setting [4]) turned out to be 1.06 µM. In the case of `Cc1cc2c(cc(C(=O)N[C@H](C)c3ccc([S+]([O-])CC(=O)OC(C)C)cc3)n2C)c(Cl)c1Cl` (stereo partly drawn) [Example 13-011, propan-2-yl 2-{4-[(1R)-1-[(4,5-dichloro-1,6-dimethyl-1H-indol-2-yl)formamido]ethyl]benzenesulfinyl}acetate], the IC50 in experiment [2] (setting [4]) stood at 1.74 µM.

Consider `C[C@@H](NC(=O)c1cc(-c2ccc(F)cc2)nn1C)c1ccc(S(=O)(=O)CC(=O)NOCCN2CCOCC2)cc1` [Example 15-001, 3-(4-fluorophenyl)-1-methyl-N-[(1R)-1-[4-({[2-(morpholin-4-yl)ethoxy]carbamoyl}methanesulfonyl)phenyl]ethyl]-1H-pyrazole-5-carboxamide], for which the IC50 in experiment [1] (Homo sapiens) amounted to 55.4 µM.

For the compound `C[C@@H](NC(=O)c1cc(-c2ccc(F)cc2)nn1C)c1ccc(S(=O)(=O)CC(=O)NOC2CCN(C)CC2)cc1` [Example 15-002, 3-(4-fluorophenyl)-1-methyl-N-[(1R)-1-[4-({[(1-methylpiperidin-4-yl)oxy]carbamoyl}methanesulfonyl)phenyl]ethyl]-1H-pyrazole-5-carboxamide], the IC50 in experiment [1] (Homo sapiens) was 85.3 µM.

For the compound `Cc1cc(Cl)c2cc(C(=O)N[C@H](C)c3ccc(S(=O)(=O)CC(=O)CCC(=O)O)cc3)n(C)c2c1` [Example 15-003, 5-{4-[(1R)-1-[(4-chloro-1,6-dimethyl-1H-indol-2-yl)formamido]ethyl]benzenesulfonyl}-4-oxopentanoic acid], in experiment [1] (Homo sapiens), the IC50 was 9.64 µM. As to `CONC(=O)CS(=O)(=O)c1ccc([C@@H](C)NC(=O)c2cc(-c3ccc(F)cc3)nn2C)cc1` [Example 15-004, 3-(4-fluorophenyl)-N-[(1R)-1-{4-[(methoxycarbamoyl)methanesulfonyl]phenyl}ethyl]-1-methyl-1H-pyrazole-5-carboxamide], the IC50 in experiment [1] (Homo sapiens) amounted to 6.27 µM. With `CCOC(=O)CS(=O)(=O)c1ccc([C@@H](C)NC(=O)c2cc(-n3ccc4ccccc43)nn2C)cc1` [Example 15-005, ethyl 2-{4-[(1R)-1-{[3-(1H-indol-1-yl)-1-methyl-1H-pyrazol-5-yl]formamido}ethyl]benzenesulfonyl}acetate], the IC50 in experiment [1] (Homo sapiens) amounted to 0.309 µM. `CCOC(=O)CS(=O)(=O)c1ccc([C@@H](C)NC(=O)c2cc(-n3ncc4ccccc43)nn2C)cc1` [Example 15-006, ethyl 2-{4-[(1R)-1-{[3-(1H-indazol-1-yI)-1-methyl-1H-pyrazol-5-yl]formamido}ethyl]benzenesulfonyl}acetate]: the IC50 in experiment [1] amounted to 0.0733 µM. With `Cc1cc(Cl)c2cc(C(=O)N[C@H](C)c3ccc(S(=O)(=O)C(C)(C)C(N)=O)cc3)n(C)c2c1` [Example 15-007, N-[(1R)-1-[4-(1-carbamoyl-1-methylethanesulfonyl)phenyl]ethyl]-4-chloro-1,6-dimethyl-1H-indole-2-carboxamide], the IC50 in experiment [1] (Homo sapiens) was found to be 3.22 µM. Turning to `Cc1cc(Cl)c2cc(C(=O)N[C@H](C)c3ccc(S(=O)(=O)CC(=O)CS(=O)(=O)c4ccc([C@@H](C)NC(=O)c5cc6c(Cl)cc(C)cc6n5C)cc4)cc3)n(C)c2c1` [Example 15-008, 4-chloro-N-[(1R)-1-[4-(3-{4-[(1R)-1-[(4-chloro-1,6-dimethyl-1H-indol-2-yl)formamido]ethyl]benzenesulfonyl}-2-oxopropanesulfonyl)phenyl]ethyl]-1,6-dimethyl-1H-indole-2-carboxamide], in experiment [1] (Homo sapiens), the IC50 worked out at 0.0119 µM. As for `Cc1cc(Cl)c2cc(C(=O)N[C@H](C)c3ccc(S(=O)(=O)CC(=O)N(C)C)cc3)n(C)c2c1` [Example 15-009, 4-chloro-N-[(1R)-1-{4-[(dimethylcarbamoyl)methanesulfonyl]phenyl}ethyl]-1,6-dimethyl-1H-indole-2-carboxamide], the IC50 in experiment [1] (Homo sapiens) is 3.39 µM. Turning to `CCOC(=O)CS(=O)(=O)c1ccc([C@@H](C)NC(=O)c2cc(-c3ccccc3)n(C)n2)cc1` [Example 15-010, ethyl 2-{4-[(1R)-1-[(1-methyl-5-phenyl-1H-pyrazol-3-yl)formamido]ethyl]benzenesulfonyl}acetate], the IC50 in experiment [1] (Homo sapiens) turned out to be 1.3 µM.

Values taken from US11304929B2, “Tosylacetate based compounds and derivatives thereof as PHGDH inhibitors” (priority 2017, dated 2022).
